Source: PMC3679022, “A Cancer Specific Cell-Penetrating Peptide, BR2, for the Efficient Delivery of an scFv into Cancer Cells” (PLoS ONE, 2013)

Test system: HCT116 cells
Assay: Detection of apoptosis by annexin V-FITC / 7-AAD flow cytometry
Assay type: cell-based, human
Conditions: proteins 2 µM, staurosporine 0.5 µM, 24 h
Description: In addition, apoptotic cells were identified by staining with annexin V-FITC (150 ng/ml) and 7 amino-actinomycin D (7-AAD; BD Biosciences, San Diego, CA). 1×10^6 HCT116 cells were treated with PBS, staurosporine (0.5 µM), or peptide-fused scFvs (each, 2 µM) as described above. At the designated time, cells were washed twice with PBS (pH 7.4), harvested and resuspended in 500 µl of binding buffer supplemented with Annexin-V fluos (1∶100 diluted; BioBud, Seoul, Korea), and incubated for 15 min at 25°C in the dark. To detect necrosis, 7AAD was added prior to measurement. Samples were immediately subjected to FACS analysis with a FACSCalibur flow cytometer (FL1 and FL3) and WinMDI software (Joe Trotter, Scripps Research Institute). 1×10^4 cells per sample were analyzed by flow cytometry.
Figure 5 The BR2-anti-Ras scFv fusion protein promotes apoptosis by blocking Ras signaling in Ras-mutated HCT116 cells. […] The numbers on the top of the quadrants indicate the percentage of apoptotic and late apoptotic/necrotic cells counted from dot plots taken from one representative experiment, performed in triplicate. […] Changes in Ras activity level in HCT116 cells treated with anti-Ras scFv and BR2- and Tat-scFv fusion proteins (each, 1 and 2 µM) were determined by an ELISA-based activity assay; results are expressed as relative Ras activity (%). […]

## CN[C@@H]1C[C@H]2O[C@@](C)([C@@H]1OC)n1c3ccccc3c3c4c(c5c6ccccc6n2c5c31)C(=O)NC4 [staurosporine]
  cells in the apoptotic stage (apoptotic and late apoptotic/necrotic): 61.6%
